Laboratory results taken from publication PMC5858560 (Toxicology and applied pharmacology, 2011).
Blank lines part the entries; values can stand above or below the compound they belong to.

Experiments:
[1] = test system: human iPSC-CMs; test: ATP depletion; type: cell-based; settings: for attenuation of sunitinib-mediated ATP depletion: 3 h pretreatment with 1 or 2 mM, then 8 to 31 µM sunitinib for 24 h; for TC50 based on dose–response data for ATP depletion: human iPSC-CMs, 24 h treatment; for depletion of ATP: 31 µM sunitinib
[2] = test system: human iPSC-CMs; test: LDH release in iCell cardiomyocytes; type: cell-based
[3] = test system: human iPSC-CMs; test: Caspase 3/7 cleavage; type: cell-based; settings: for maximal attenuation of caspase 3/7 cleavage: 23 µM sunitinib 24 h
[4] = test system: human iPSC-CMs; test: GSH oxidation; type: cell-based
[5] = test system: pACC-S79, pAMPK-T172; test: Western blot of AMPK/ACC signaling in iCell cardiomyocytes; type: cell-based, human; settings: iPSC-CMs; for phosphorylation status of AMPKα-Thr172 and ACC-Ser79: 1 or 2 mM for 3 h
[6] = test system: human iPSC-CMs; test: Microelectrode array; type: cell-based; settings: MEA; for change of beat rate from baseline: up to 2 mM
[7] = biological target: Nav1.5 channel (Homo sapiens, UniProt Q14524); test: PatchXpress Nav1.5 channel assay in CHL-Nav1.5 cells; type: cell-based; settings: read-out: IC50 of Nav1.5 channel inhibition
[8] = test system: human iPSC-CMs; test: Cytotoxicity dose response; type: cell-based; settings: for concentration without cytotoxicity (no ATP depletion or LDH release): 4 to 250 µM tested, 24 h
[9] = biological target: AMPK-alpha1 (Homo sapiens, UniProt Q13131); test: KINOMEscan; type: binding; settings: read-out: % Inhibition AMBIT, AMP_K-alpha1
Sequence of AMPK-alpha1 (Q13131 whole entry): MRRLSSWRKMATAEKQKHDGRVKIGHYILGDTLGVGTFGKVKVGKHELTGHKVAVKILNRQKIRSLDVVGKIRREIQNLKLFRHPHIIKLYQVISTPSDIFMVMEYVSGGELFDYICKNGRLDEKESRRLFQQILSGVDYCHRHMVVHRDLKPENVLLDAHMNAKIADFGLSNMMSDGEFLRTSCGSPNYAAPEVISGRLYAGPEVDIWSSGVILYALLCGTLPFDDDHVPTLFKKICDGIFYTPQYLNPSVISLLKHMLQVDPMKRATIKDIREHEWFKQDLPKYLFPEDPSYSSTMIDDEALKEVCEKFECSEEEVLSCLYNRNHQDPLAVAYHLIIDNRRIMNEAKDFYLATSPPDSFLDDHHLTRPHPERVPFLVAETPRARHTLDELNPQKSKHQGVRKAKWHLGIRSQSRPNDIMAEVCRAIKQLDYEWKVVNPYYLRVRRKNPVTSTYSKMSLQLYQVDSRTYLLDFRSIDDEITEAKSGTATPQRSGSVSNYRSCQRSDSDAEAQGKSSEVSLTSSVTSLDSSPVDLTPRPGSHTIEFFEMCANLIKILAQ

[10] = biological target: AMPK-alpha2 (Homo sapiens, UniProt P54646); test: KINOMEscan; type: binding; settings: read-out: % Inhibition AMBIT, AMPK-alpha2
[11] = biological target: AURORA B KINASE (Homo sapiens, UniProt Q96GD4); test: KINOMEscan; type: binding; settings: read-out: % Inhibition AMBIT, AURORA B KINASE
Sequence of AURORA B KINASE (Q96GD4 whole entry): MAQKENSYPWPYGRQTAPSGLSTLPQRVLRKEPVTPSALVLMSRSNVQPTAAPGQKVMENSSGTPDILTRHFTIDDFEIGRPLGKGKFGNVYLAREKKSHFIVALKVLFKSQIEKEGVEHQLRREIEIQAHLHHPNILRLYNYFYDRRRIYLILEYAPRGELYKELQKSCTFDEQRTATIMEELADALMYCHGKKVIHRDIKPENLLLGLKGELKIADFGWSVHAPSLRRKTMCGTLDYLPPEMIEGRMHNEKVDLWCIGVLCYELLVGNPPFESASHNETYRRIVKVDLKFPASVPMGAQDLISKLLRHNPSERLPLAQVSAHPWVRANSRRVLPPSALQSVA

[12] = biological target: AURORA C KINASE (Homo sapiens, UniProt Q9UQB9); test: KINOMEscan; type: binding; settings: read-out: % Inhibition AMBIT, AURORA C KINASE
[13] = biological target: CDK7 (Homo sapiens, UniProt P50613); test: KINOMEscan; type: binding; settings: read-out: % Inhibition AMBIT, CDK7
[14] = biological target: PDGFR-alpha (Homo sapiens, UniProt P16234); test: KINOMEscan; type: binding; settings: read-out: % Inhibition AMBIT, PDGFR-alpha
[15] = biological target: PDGFR-beta (Homo sapiens, UniProt P09619); test: KINOMEscan; type: binding; settings: read-out: % Inhibition AMBIT, PDGFR-beta
[16] = biological target: PLK4 (Homo sapiens, UniProt O00444); test: KINOMEscan; type: binding; settings: read-out: % Inhibition AMBIT, PLK4
[17] = biological target: FLT1 (Homo sapiens, UniProt P17948); test: KINOMEscan; type: binding; settings: read-out: % Inhibition AMBIT, FLT1
[18] = biological target: FLT4 (Homo sapiens, UniProt P35916); test: KINOMEscan; type: binding; settings: read-out: % Inhibition AMBIT, FLT4
[19] = biological target: STK11 (Homo sapiens, UniProt Q15831); test: KINOMEscan; type: binding; settings: read-out: % Inhibition AMBIT, STK11
Sequence of STK11 (Q15831 whole entry): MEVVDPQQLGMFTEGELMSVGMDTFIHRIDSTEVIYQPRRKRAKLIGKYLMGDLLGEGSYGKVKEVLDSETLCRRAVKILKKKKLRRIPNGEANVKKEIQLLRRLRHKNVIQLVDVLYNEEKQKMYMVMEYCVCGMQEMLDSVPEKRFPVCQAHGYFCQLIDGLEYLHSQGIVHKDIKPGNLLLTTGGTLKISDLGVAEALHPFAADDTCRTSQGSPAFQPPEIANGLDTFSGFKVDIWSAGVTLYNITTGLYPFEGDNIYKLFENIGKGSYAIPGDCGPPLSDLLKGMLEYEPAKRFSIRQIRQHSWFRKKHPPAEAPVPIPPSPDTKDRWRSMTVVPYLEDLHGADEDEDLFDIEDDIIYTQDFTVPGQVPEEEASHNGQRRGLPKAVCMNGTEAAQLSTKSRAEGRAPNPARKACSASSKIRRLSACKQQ

[20] = biological target: RPS6KA1 (Kin. Dom.1) (Homo sapiens, UniProt Q15418); test: KINOMEscan; type: binding; settings: read-out: % Inhibition AMBIT, RPS6KA1 (Kin. Dom.1)
Sequence of RPS6KA1 (Kin. Dom.1) (Q15418 1-391 limits assumed): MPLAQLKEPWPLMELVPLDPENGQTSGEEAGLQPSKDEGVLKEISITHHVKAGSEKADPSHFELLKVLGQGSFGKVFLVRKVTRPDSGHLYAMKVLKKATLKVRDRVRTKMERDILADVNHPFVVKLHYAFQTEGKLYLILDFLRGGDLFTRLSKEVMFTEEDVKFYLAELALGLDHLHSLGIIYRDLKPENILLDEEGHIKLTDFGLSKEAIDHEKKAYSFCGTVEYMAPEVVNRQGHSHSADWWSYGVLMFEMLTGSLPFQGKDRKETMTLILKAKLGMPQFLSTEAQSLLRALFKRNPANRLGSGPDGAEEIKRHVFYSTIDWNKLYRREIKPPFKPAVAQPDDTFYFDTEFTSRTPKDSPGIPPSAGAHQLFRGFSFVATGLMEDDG

[21] = biological target: RPS6KA2 (Kin. Dom.1) (Homo sapiens, UniProt Q15349); test: KINOMEscan; type: binding; settings: read-out: % Inhibition AMBIT, RPS6KA2 (Kin. Dom.1)
[22] = biological target: RPS6KA4 (Kin. Dom.1) (Homo sapiens, UniProt O75676); test: KINOMEscan; type: binding; settings: read-out: % Inhibition AMBIT, RPS6KA4 (Kin. Dom.1)
[23] = biological target: RPS6KA4 (Kin. Dom.2) (Homo sapiens, UniProt O75676); test: KINOMEscan; type: binding; settings: read-out: % Inhibition AMBIT, RPS6KA4 (Kin. Dom.2)
[24] = biological target: RPS6KA6 (Kin. Dom.1) (Homo sapiens, UniProt Q9UK32); test: KINOMEscan; type: binding; settings: read-out: % Inhibition AMBIT, RPS6KA6 (Kin. Dom.1)
Sequence of RPS6KA6 (Kin. Dom.1) (Q9UK32 1-400 limits assumed): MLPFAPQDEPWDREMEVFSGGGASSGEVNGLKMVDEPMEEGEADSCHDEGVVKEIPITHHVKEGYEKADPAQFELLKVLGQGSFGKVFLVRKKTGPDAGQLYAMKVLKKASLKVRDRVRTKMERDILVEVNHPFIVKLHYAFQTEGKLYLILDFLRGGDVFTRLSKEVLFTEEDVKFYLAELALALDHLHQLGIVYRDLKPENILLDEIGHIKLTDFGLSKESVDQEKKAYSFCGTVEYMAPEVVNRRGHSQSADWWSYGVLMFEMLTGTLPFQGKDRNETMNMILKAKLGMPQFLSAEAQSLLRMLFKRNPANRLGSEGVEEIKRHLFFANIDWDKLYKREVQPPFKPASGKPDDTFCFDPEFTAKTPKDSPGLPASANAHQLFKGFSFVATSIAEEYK

[25] = biological target: ROCK2 (Homo sapiens, UniProt O75116); test: KINOMEscan; type: binding; settings: read-out: % Inhibition AMBIT, ROCK2
Sequence of ROCK2 (O75116 whole entry): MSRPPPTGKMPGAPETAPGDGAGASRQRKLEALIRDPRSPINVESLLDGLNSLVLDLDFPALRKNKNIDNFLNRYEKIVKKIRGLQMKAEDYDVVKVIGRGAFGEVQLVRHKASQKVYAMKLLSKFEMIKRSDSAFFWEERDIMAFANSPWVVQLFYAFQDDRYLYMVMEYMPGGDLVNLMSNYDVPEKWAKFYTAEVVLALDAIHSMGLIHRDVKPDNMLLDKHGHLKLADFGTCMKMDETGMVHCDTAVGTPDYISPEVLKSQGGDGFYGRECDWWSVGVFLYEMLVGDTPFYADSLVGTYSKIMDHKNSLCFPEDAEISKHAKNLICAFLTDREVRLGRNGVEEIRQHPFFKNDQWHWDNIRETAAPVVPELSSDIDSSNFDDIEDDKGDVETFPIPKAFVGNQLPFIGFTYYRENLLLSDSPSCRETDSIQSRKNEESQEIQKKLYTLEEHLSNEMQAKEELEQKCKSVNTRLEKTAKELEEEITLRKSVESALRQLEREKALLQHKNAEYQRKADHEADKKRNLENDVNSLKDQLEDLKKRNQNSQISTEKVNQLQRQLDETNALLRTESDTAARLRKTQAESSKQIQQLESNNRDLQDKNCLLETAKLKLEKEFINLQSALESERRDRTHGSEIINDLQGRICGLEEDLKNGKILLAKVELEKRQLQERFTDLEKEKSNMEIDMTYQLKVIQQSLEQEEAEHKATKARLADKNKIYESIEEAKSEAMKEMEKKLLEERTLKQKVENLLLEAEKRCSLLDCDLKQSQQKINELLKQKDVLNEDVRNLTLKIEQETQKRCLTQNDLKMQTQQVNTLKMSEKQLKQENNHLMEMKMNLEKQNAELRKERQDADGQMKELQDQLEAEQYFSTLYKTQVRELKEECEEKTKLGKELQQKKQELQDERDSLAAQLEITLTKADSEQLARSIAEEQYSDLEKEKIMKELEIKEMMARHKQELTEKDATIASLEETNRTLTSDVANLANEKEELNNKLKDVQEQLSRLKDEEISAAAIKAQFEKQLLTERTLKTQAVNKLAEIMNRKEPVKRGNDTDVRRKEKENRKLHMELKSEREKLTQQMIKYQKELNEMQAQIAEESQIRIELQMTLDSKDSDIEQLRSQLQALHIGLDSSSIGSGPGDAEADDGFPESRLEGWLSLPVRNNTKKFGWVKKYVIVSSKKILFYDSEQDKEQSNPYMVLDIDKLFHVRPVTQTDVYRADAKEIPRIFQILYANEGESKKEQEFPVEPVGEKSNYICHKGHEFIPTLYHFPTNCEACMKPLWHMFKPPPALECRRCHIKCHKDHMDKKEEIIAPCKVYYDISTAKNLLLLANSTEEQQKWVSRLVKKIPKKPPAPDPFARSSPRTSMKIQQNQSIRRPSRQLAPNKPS

[26] = biological target: AKT3 (Homo sapiens, UniProt Q9Y243); test: KINOMEscan; type: binding; settings: read-out: % Inhibition AMBIT, AKT3
[27] = biological target: AURORA A KINASE (Homo sapiens, UniProt O14965); test: KINOMEscan; type: binding; settings: read-out: % Inhibition AMBIT, AURORA A KINASE
[28] = biological target: BRAF (Homo sapiens, UniProt P15056); test: KINOMEscan; type: binding; settings: read-out: % Inhibition AMBIT, BRAF
[29] = biological target: DMPK (Homo sapiens, UniProt Q09013); test: KINOMEscan; type: binding; settings: read-out: % Inhibition AMBIT, DMPK
Sequence of DMPK (Q09013 whole entry): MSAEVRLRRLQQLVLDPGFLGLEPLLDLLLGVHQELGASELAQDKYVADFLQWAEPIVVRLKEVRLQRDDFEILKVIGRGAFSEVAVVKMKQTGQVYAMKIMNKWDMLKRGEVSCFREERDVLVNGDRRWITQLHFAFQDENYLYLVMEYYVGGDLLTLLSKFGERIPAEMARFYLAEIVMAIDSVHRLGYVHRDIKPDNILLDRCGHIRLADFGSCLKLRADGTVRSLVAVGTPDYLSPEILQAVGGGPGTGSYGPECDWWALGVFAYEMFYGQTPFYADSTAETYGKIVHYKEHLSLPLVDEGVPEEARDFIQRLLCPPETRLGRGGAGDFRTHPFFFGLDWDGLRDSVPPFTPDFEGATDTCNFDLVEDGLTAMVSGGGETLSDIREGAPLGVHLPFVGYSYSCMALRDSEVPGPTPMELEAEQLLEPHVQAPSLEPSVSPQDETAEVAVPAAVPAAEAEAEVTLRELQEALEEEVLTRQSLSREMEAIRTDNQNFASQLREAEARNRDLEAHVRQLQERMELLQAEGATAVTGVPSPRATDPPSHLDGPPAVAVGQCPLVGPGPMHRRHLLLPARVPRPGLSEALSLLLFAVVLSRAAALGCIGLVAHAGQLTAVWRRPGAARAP

[30] = biological target: ERBB2 (Homo sapiens, UniProt P04626); test: KINOMEscan; type: binding; settings: read-out: % Inhibition AMBIT, ERBB2
[31] = biological target: ERBB4 (Homo sapiens, UniProt Q15303); test: KINOMEscan; type: binding; settings: read-out: % Inhibition AMBIT, ERBB4
[32] = biological target: GSK3A (Homo sapiens, UniProt P49840); test: KINOMEscan; type: binding; settings: read-out: % Inhibition AMBIT, GSK3A
Sequence of GSK3A (P49840 whole entry): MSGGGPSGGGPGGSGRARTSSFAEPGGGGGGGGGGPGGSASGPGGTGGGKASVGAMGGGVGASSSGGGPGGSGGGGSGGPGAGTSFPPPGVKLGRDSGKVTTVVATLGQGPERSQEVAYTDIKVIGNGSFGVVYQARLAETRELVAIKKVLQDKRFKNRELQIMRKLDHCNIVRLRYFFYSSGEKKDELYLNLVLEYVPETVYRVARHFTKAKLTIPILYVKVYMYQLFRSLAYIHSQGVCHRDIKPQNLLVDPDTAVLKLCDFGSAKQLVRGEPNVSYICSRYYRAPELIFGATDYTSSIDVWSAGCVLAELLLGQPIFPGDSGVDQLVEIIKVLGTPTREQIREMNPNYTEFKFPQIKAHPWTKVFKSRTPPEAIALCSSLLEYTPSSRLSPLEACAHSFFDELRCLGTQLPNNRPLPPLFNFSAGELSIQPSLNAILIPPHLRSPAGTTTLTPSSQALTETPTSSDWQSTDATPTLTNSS

[33] = biological target: GSK3B (Homo sapiens, UniProt P49841); test: KINOMEscan; type: binding; settings: read-out: % Inhibition AMBIT, GSK3B
[34] = biological target: MAP3K5 (ASK1) (Homo sapiens, UniProt Q99683); test: KINOMEscan; type: binding; settings: read-out: % Inhibition AMBIT, MAP3K5 (ASK1)
[35] = biological target: MAPK/ERK2 (Homo sapiens, UniProt P28482); test: KINOMEscan; type: binding; settings: read-out: % Inhibition AMBIT, MAPK/ERK2
[36] = biological target: PIM1 (Homo sapiens, UniProt P11309); test: KINOMEscan; type: binding; settings: read-out: % Inhibition AMBIT, PIM1
[37] = biological target: PIM2 (Homo sapiens, UniProt Q9P1W9); test: KINOMEscan; type: binding; settings: read-out: % Inhibition AMBIT, PIM2
Sequence of PIM2 (Q9P1W9 whole entry): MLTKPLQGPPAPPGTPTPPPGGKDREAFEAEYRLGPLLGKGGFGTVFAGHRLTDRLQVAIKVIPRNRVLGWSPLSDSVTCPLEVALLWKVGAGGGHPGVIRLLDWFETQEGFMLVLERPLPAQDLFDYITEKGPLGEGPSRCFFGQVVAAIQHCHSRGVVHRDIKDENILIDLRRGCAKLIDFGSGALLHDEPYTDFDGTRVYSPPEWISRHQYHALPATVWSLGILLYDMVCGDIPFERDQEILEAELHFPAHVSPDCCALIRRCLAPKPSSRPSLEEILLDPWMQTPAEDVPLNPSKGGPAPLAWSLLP

[38] = biological target: PLK1 (Homo sapiens, UniProt P53350); test: KINOMEscan; type: binding; settings: read-out: % Inhibition AMBIT, PLK1
[39] = biological target: PLK3 (Homo sapiens, UniProt Q9H4B4); test: KINOMEscan; type: binding; settings: read-out: % Inhibition AMBIT, PLK3
[40] = biological target: RAF (Homo sapiens, UniProt P04049); test: KINOMEscan; type: binding; settings: read-out: % Inhibition AMBIT, RAF
[41] = biological target: RPS6KA6 (Kin. Dom.2) (Homo sapiens, UniProt Q9UK32); test: KINOMEscan; type: binding; settings: read-out: % Inhibition AMBIT, RPS6KA6 (Kin. Dom.2)
[42] = test system: RSK1/2/4; test: 10 µM AMBIT screen; type: binding
[43] = test system: 317 kinases; settings: at 0.1 µM; ref Karaman et al., 2008; cited from earlier work
[44] = test system: RSK1; settings: read-out: IC50 RSK1; kinase activity assay; ref Hasinoff et al., 2008; cited from earlier work
[45] = 23 µM sunitinib, 24 h, iPSC-CMs
[46] = 31 µM sunitinib, 24 h, iPSC-CMs

Structure (SMILES): NC(=O)c1ncn([C@@H]2O[C@H](CO)[C@@H](O)[C@H]2O)c1N [AICAR, aminoimidazole carboxamide ribonucleotide]
attenuation of sunitinib-mediated ATP depletion [1]: Neither AICAR (Fig. 3A) nor metformin (Fig. 3E) attenuated | reduction of LDH release ([2]; 1 mM pretreatment 3 h, 23 or 31 µM sunitinib 24 h): 80% | maximal attenuation of caspase 3/7 cleavage ([3]; 2 mM pretreatment 3 h): 108% | attenuation of oxidized GSH ([4]; 1 mM pretreatment 3 h, 31 µM sunitinib 24 h): 14% | phosphorylation status of AMPKα-Thr172 and ACC-Ser79 [5]: activated AMPK signaling | change of beat rate from baseline [6]: ≤ 1%

Structure (SMILES): COCCNCCCn1c(C(=O)CF)c(-c2ccc(C)cc2)c2c(N)ncnc21 [RSK FMK-MEA, fluoromethylketone methoxyethylamine]
TC50 based on dose–response data for ATP depletion [1]: 250 µM | concentration with irregular (arrhythmic) beats ([6]; 15 min at each concentration): 3000 nM | amplitude of the Na+-peak ([6]; serially increasing additions): dose-dependent reduction in the amplitude of the Na^+-peak | fPDc (field-potential duration corrected by beat rate, Fridericia) ([6]; serially increasing additions): dose-dependent prolongation of fPDc | IC50 [7]: 56.8 µM | concentration without cytotoxicity (no ATP depletion or LDH release) [8]: up to 62 µM | concentration without cytotoxicity (no ATP depletion or LDH release) ([8]; listed as RSK-FMK-MEA): below 250 µM

change of beat rate from baseline [6]: ≤ 1%
Structure (SMILES): CN(C)C(=N)N=C(N)N [metformin]
attenuation of sunitinib-mediated ATP depletion [1]: Neither AICAR (Fig. 3A) nor metformin (Fig. 3E) attenuated | maximal attenuation of LDH release ([2]; 1 mM pretreatment 3 h, 23 µM sunitinib 24 h): 90% | maximal attenuation of caspase 3/7 cleavage ([3]; 1 mM pretreatment 3 h): 107% | reduction in oxidation of GSH ([4]; 2 mM pretreatment 3 h, 23 µM sunitinib 24 h): 35% | phosphorylation status of AMPKα-Thr172 and ACC-Ser79 [5]: activated AMPK signaling

inhibition at 10 µM [9]: 100% | inhibition at 10 µM [10]: 99% | inhibition at 10 µM [11]: 100% | inhibition at 10 µM [12]: 100% | inhibition at 10 µM [13]: 100% | inhibition at 10 µM [14]: 100% | inhibition at 10 µM [15]: 100% | inhibition at 10 µM [16]: 100% | inhibition at 10 µM [17]: 100% | inhibition at 10 µM [18]: 100% | inhibition at 10 µM [19]: 100% | inhibition at 10 µM [20]: 100% | inhibition at 10 µM [21]: 100% | inhibition at 10 µM [22]: 100% | inhibition at 10 µM [23]: 99% | inhibition at 10 µM [24]: 97% | inhibition at 10 µM [25]: 97% | inhibition at 10 µM [26]: < 50% | inhibition at 10 µM [27]: < 50% | inhibition at 10 µM [28]: < 50% | inhibition at 10 µM [29]: < 50% | inhibition at 10 µM [30]: < 50% | inhibition at 10 µM [31]: < 50% | inhibition at 10 µM [32]: < 50% | inhibition at 10 µM [33]: < 50% | inhibition at 10 µM [34]: < 50% | inhibition at 10 µM [35]: < 50% | inhibition at 10 µM [36]: < 50% | inhibition at 10 µM [37]: < 50% | inhibition at 10 µM [38]: < 50% | inhibition at 10 µM [39]: < 50% | inhibition at 10 µM [40]: < 50% | inhibition at 10 µM [41]: < 50%
Structure (SMILES): CCN(CC)CCNC(=O)c1c(C)[nH]c(/C=C2\C(=O)Nc3ccc(F)cc32)c1C [sunitinib, Sunitinib]
ATP depleted compared to vehicle [1, 45]: greater than 60% | depletion of ATP ([1]; 24 h, iPSC-CMs): ~100% | depletion of ATP ([1]; by 4.5 h, iPSC-CMs (unpublished results)): 80% | TC50 based on dose–response data for ATP depletion [1]: 16.7 µM | increase in LDH release compared to vehicle [2, 45]: 300% | release of LDH [2, 46]: ~100% | cleavage of caspase 3/7 [3, 46]: ~100% | GSH oxidized compared to vehicle [4, 45]: 67% | oxidation of GSH [4, 46]: ~100% | inhibition of phosphorylation of AMPK's downstream target ACC-Ser79 ([5]; 15 µM for 2 h): inhibited AMPK | phosphorylation status of ACC-S79 ([5]; 15.6 µM, 2 h): decreased the phosphorylation status of ACC-S79 | amplitude of the Na+-peak ([6]; serially increasing additions): dose-dependently reduced the amplitude of the Na^+-peak | inhibition of RSK1/2/4 [42]: 100% | IC50 of cardiotoxicity (loss of cellular ATP, oxidized glutathione, apoptosis) [8]: low micromolar range | number of kinases bound of the 317 kinases tested [43]: 57 | share of the 317 kinases tested that were bound [43]: 18% | IC50 [44]: […]
